Article PMC10222279, “Detection of Acetaminophen in Groundwater by Laccase-Based Amperometric Biosensors Using MoS2 Modified Carbon Paper Electrodes” (Sensors (Basel, Switzerland), 2023)

Test system: T1, TvL
T1 construct: gene LCC2
Conditions: read-out: KMapp / Free; free enzyme; assay as for activity: 50 mM citric/phosphate buffer pH 4, 420 nm; unit not in table grid, µM
From the text: ABTS oxidation kinetics, non-linear Michaelis-Menten fit on TvL

CCn1c(=NN=c2sc3cc(S(=O)(=O)O)ccc3n2CC)sc2cc(S(=O)(=O)O)ccc21 [ABTS, 2,2′-azino-bis(3-ethylbenzthiazoline-6-sulphonic acid)]
Km: 42.1 ± 3.14 µM
